Experimental findings from US20230303613A1, “3′3′ CYCLIC DINUCLEOTIDES WITH AN ALKENYLENE” (Institute of Organic Chemistry and Biochemistry AS CR, v.v.i, priority 2020, published 2023) are described below.

pEC50: −log10 of the molar value. Where two headings read alike, the source gives them in different places.

One experiment concerns the target WT STING (Homo sapiens, UniProt Q86WV6, H232R). Nature of the experiment: 293T WT STING standard reporter assay. It counts as cell-based. The conditions noted are these: 293T wtSTING-FL cells; 7 hours with compound, no digitonin; ISRE firefly luciferase reporter. The source says: Two complementary oligonucleotides of the sequence […] […] […] […] […] The oligonucleotides were mixed in equal molar amounts, hybridized, and cleaved by restriction endonucleases HindIII (cat. #. R0104S, NEB, Ipswich, USA) and BglII (cat. # R0144S, NEB, Ipswich, USA). Ultimately, they were ligated into plasmid pGL4.27 (cat. # E6651, Promega, Madison, USA) linearized with the same enzymes. As result the sequence with four ISRE sites was placed upstream of the minimum promoter of firefly luciferase reporter gene.
After 5 minutes incubation at room temperature (RT), 250 µL of the mixture was added dropwise to the cells in one well. Cells were incubated 36 hours at 37° C. with 5% CO2, and then detached with 0.05% Trypsin and 0.22 g/L EDTA (both cat. # L0941, Biowest, Riverside, USA).
Transfected cells were seeded onto poly-D-lysine coated six well plates at density 50,000 cells per 1 cm^2 in DMEM medium with high glucose containing 10% heat inactivated FBS, 30 µg/mL blasticidin (cat. # ant-bl-05, InvivoGen, San Diego, USA), 0.06 mg/ml Penicillin G and 0.1 mg/ml Streptomycin Sulfate (both cat. #. L0018, Biowest, Riverside, USA). The medium was replenished every 3 - 4 days until visible colonies of cells resistant to blasticidin were formed.
Blasticidin resistant cells stably expressing WT STING were further transfected with […] plasmid following the same procedure as described above. […] Homogeneous culture of stably double transfected cells was prepared by limiting dilution of cells in 96 well plates and wells with cells were selected that originated from a single cell.
The medium was removed next day and three-fold serial dilutions of compounds in 100 µl medium were added to the cells. The plates with cells were incubated for 7 hours at 37° C. with 5% CO2. After 50 µl of the medium was removed, 30 µl of ONE-Glo^Tm Luciferase Assay System reagent (cat. # E6120, Promega, Madison, USA) was added to each well and luminescence was read on Synergy H1 (Biotek, Winooski, USA).
In general terms: A reporter such as luciferase makes a cellular process visible.

Experiment [1] concerns peripheral blood mononuclear cell (PBMC). The experiment can be described thus: Peripheral blood mononuclear cell assay. It counts as cell-based. The conditions noted are these: 1h with compound, washed, 15 hour incubation. As to the method:
Selected compounds were tested in an in vitro peripheral blood mononuclear cell (PBMC) assay. Freshly isolated PBMCs were seeded into U-shaped shaped 96-well plates at desity 500,000 cells per well in 50 µl of RPMI 1640 medium supplemented with 10% heat inactivated FBS. Serially dilluted tested compounds were added to wells in 50 µl of cultivation medium and cell were incubated with compounds for 1h at 37° C. with 5% CO2. Plates with cells were then spun 500 g for 5 minutes and medium was removed. Cells were washed twice with the cell culture medium by the use of centrifugation and gently resuspended in 100 µl medium without compounds. After 15 hour incubation at 37° C. with 5% CO2, the cell culture medium was collected and the levels of interferon-alpha (INF-α), interferon-gamma (INF-γ) and tumor necrosis factor-alpha (TNF-α) were determined with ProcartaPlex Assays (ThermoFisher, Waltham, USA) and MAGPIX System (Merck KGaA, Darmstadt, Germany).

[2] abbreviates: PBMC, IFN-α level in medium, read-out: PBMC EC50 IFN-α.
[3] abbreviates: PBMC, IFN-γ level in medium, read-out: PBMC EC50 IFN-γ.
[4] abbreviates: PBMC, TNF-α level in medium, read-out: PBMC EC50 TNF-α.
Where [5] appears, read: IFN-α level in medium, read-out: PBMC EC50 IFN-α.
Where [6] appears, read: TNF-α level in medium, read-out: PBMC EC50 TNF-α.

WT STING, sequence (Q86WV6 whole entry H232R): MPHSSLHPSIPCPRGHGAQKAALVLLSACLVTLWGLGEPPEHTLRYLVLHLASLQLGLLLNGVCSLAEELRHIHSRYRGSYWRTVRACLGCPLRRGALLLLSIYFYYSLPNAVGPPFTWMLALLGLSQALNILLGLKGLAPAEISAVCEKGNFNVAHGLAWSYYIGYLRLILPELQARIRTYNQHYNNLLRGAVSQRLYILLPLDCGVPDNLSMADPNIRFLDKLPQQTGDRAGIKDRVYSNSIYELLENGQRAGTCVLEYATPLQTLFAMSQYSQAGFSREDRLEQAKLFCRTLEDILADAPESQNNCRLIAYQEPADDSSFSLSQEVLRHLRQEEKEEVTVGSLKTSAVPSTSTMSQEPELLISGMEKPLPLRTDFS

`CC1(C(=O)OCOP2(=O)/C=C/[C@H]3O[C@@H](n4cnc5c(N)ncnc54)[C@H](F)[C@@H]3OP(=O)(OCOC(=O)C3(C)CCCCC3)OC[C@H]3O[C@@H](n4cnc5c(N)ncnc54)[C@H](F)[C@@H]3O2)CCCCC1` (single isomer, unassigned) [Compound 82c]: the pEC50 (as a rule, −log10 of the EC50, conventionally taken in molar units) is 7.82 on WT STING, 7.00 in experiment [1] (setting [2]), 7.15 in experiment [1] (setting [3]) and 7.22 in experiment [1] (setting [4]).

As for `CC(C)(C)C(=O)OCOP1(=O)/C=C/[C@H]2O[C@@H](n3cnc4c(N)ncnc43)[C@H](F)[C@@H]2OP(=O)(OCOC(=O)C(C)(C)C)OC[C@H]2O[C@@H](n3cnc4c(N)ncnc43)C[C@@H]2O1` (stereo partly drawn) [Compound 86, {[(1R,6R,8R,10S,13E,15R,17R,18R)-8,17-bis(6-amino-9H-purin-9-yl)-3-{[(2,2-dimethylpropanoyl)oxy]methoxy}-18-fluoro-3,12-dioxo-2,4,7,11,16-pentaoxa-3λ^5,12λ^5-diphosphatricyclo[13.3.0.0^6,^10]octadec-13-en-12-yl]oxy}methyl 2,2-dimethylpropanoate], the negative logarithm of the EC50 (pEC50) is 8.00 on WT STING, 6.22 in experiment [1] (setting [2]), 5.80 in experiment [1] (setting [3]) and 6.10 in experiment [1] (setting [4]).

`CCCCCCCCCCCC(=O)OCOP1(=O)/C=C/[C@H]2O[C@@H](n3cnc4c(N)ncnc43)[C@H](F)[C@@H]2OP(=O)(OCOC(=O)CCCCCCCCCCC)OC[C@H]2O[C@@H](n3cnc4c(N)ncnc43)[C@H](F)[C@@H]2O1` (single isomer, unassigned) [Compound 85a]: the pEC50 at WT STING was 9.40; in experiment [1] (setting [2]) it was 7.70; in experiment [1] (setting [3]) it was 8.00; in experiment [1] (setting [4]), 7.70.

On to `CCC(C)(C)C(=O)OCOP1(=O)/C=C/[C@H]2O[C@@H](n3cnc4c(N)ncnc43)[C@H](F)[C@@H]2OP(=O)(OCOC(=O)C(C)(C)CC)OC[C@H]2O[C@@H](n3cnc4c(N)ncnc43)[C@H](F)[C@@H]2O1` (single isomer, unassigned) [Compound 84c], for which the results for the pEC50 (at WT STING; in experiment [1] (setting [5]); in experiment [1] (setting [6])) were 8.15, 7.52 and 8.00, respectively.

As for “{[(1R,6R,8R,9R,10R,13E,15R,17R,18R)-8,17-bis(6-amino-9H-purin-9-yl)-9,18-difluoro-3,12-dioxo-3-({[(propan-2-yloxy)carbonyl]oxy}methoxy)-2,4,7,11,16-pentaoxa-3λ^5,12λ^5- diphosphatricyclo[13.3.0.0^6,^10]octadec-13-en-12-yl]oxy}methyl propan-2-yl carbonate [Compound 81c]”, the pEC50 on WT STING was 6.91; in experiment [1] (setting [5]) it was 6.22; in experiment [1] (IFN-γ level in medium, read-out: PBMC EC50 IFN-γ) it was 5.89; in experiment [1] (setting [6]) it was 6.60.

As to `CC(C)(C)C(=O)OCOP1(=O)/C=C/[C@H]2O[C@@H](n3cnc4c(N)ncnc43)C[C@@H]2OP(=O)(OCOC(=O)C(C)(C)C)OC[C@H]2O[C@@H](n3cnc4c(N)ncnc43)[C@H](F)[C@@H]2O1` (single isomer, unassigned) [Compound 87c], the pEC50 on WT STING was 6.59.

Consider “{[(1R,6R,8R,9R,10R,13E,15R,17R,18R)-8,17-bis(6-amino-9H-purin-9-yl)-9,18-difluoro-3,12-dioxo-3-({[(propan-2-yloxy)carbonyl]oxy}methoxy)-2,4,7,11,16-pentaoxa-3λ^5,12λ^5- diphosphatricyclo[13.3.0.0^6,^10]octadec-13-en-12-yl]oxy}methyl propan-2-yl carbonate [Compound 81b]”, for which the pEC50 at WT STING was 5.92.

As for `CCC(C)(C)C(=O)OCOP1(=O)/C=C/[C@H]2O[C@@H](n3cnc4c(N)ncnc43)[C@H](F)[C@@H]2OP(=O)(OCOC(=O)C(C)(C)CC)OC[C@H]2O[C@@H](n3cnc4c(N)ncnc43)[C@H](F)[C@@H]2O1` (single isomer, unassigned) [Compound 84b], the pEC50 at WT STING was 8.00; in experiment [1] (setting [5]) it was 7.10; in experiment [1] (setting [6]) it was 7.15; in experiment [1] (setting [3]), 7.22.

Regarding `CCC(C)(C)C(=O)OCOP1(=O)/C=C/[C@H]2O[C@@H](n3cnc4c(N)ncnc43)[C@H](F)[C@@H]2OP(=O)(OCOC(=O)C(C)(C)CC)OC[C@H]2O[C@@H](n3cnc4c(N)ncnc43)[C@H](F)[C@@H]2O1` (single isomer, unassigned) [Compound 84a], the pEC50 on WT STING is 6.82.
